{"source": "PubChem BioAssay AID248", "about": "(DTP/NCI, 2004)", "test_system": "L1210 leukemia ip in BDF1 mice, survival T/C", "test": "NCI In Vivo Anticancer Drug Screen. Data for tumor model L1210 Leukemia (intraperitoneal) in B6D2F1 (BDF1) mice", "conditions": "endpoint: mean survival time, higher = longer survival", "summary_of_the_method": "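Value reflects the ratio of survival in compound-treated mice to survival in vehicle-treated controls, with both groups carrying the same transplanted tumor.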", "note": "Where “and” joins values, the source holds several entries; their conditions need not be identical. Equal values may be shown once. Inconclusive results and toxic doses are left out."}
{"smiles": "O=C(Nc1cccc(Cl)c1Cl)Oc1ccc(F)cc1Cl", "values": [{"measurement": "T/C", "setting": "dose: 100.0 mg/kg/injection, schedule: Q01DX009 (ip), vehicle: Klucel (hydroxypropylcellulose) (HPC)", "result": "108 % of control"}, {"measurement": "T/C", "setting": "dose: 200.0 mg/kg/injection, schedule: Q01DX009 (ip), vehicle: Klucel (hydroxypropylcellulose) (HPC)", "result": "108 % of control"}, {"measurement": "T/C", "setting": "dose: 400.0 mg/kg/injection, schedule: Q01DX009 (ip), vehicle: Klucel (hydroxypropylcellulose) (HPC)", "result": "113 % of control"}]}
{"smiles": "NC1CC1c1ccccc1", "note": "(stereo unspecified)", "values": [{"measurement": "T/C", "setting": "dose: 12.5 mg/kg/injection, schedule: Q04DX003 (ip), vehicle: saline", "result": "98 % of control and 93 % of control"}, {"measurement": "T/C", "setting": "dose: 25.0 mg/kg/injection, schedule: Q01DX009 (ip), vehicle: saline", "result": "97 % of control"}, {"measurement": "T/C", "setting": "dose: 25.0 mg/kg/injection, schedule: Q04DX003 (ip), vehicle: saline", "result": "96 % of control and 100 % of control and 92 % of control"}, {"measurement": "T/C", "setting": "dose: 50.0 mg/kg/injection, schedule: Q01DX009 (ip), vehicle: saline", "result": "105 % of control"}, {"measurement": "T/C", "setting": "dose: 50.0 mg/kg/injection, schedule: Q04DX003 (ip), vehicle: saline", "result": "96 % of control and 95 % of control and 100 % of control"}, {"measurement": "T/C", "setting": "dose: 100.0 mg/kg/injection, schedule: Q01DX009 (ip), vehicle: saline", "result": "105 % of control"}, {"measurement": "T/C", "setting": "dose: 100.0 mg/kg/injection, schedule: Q04DX003 (ip), vehicle: saline", "result": "86 % of control and 103 % of control"}]}
{"smiles": "O=NN(CCCl)C(=O)Nc1ccc(CCCl)cc1", "values": [{"measurement": "T/C", "setting": "dose: 10.0 mg/kg/injection, schedule: Q01DX001 (ip), vehicle: carboxymethylcellulose (CMC)", "result": "161 % of control"}, {"measurement": "T/C", "setting": "dose: 20.0 mg/kg/injection, schedule: Q01DX001 (ip), vehicle: carboxymethylcellulose (CMC)", "result": "152 % of control"}, {"measurement": "T/C", "setting": "dose: 33.0 mg/kg/injection, schedule: Q01DX001 (ip), vehicle: carboxymethylcellulose (CMC)", "result": "246 % of control"}, {"measurement": "T/C", "setting": "dose: 33.0 mg/kg/injection, schedule: Q01DX009 (ip), vehicle: carboxymethylcellulose (CMC)", "result": "107 % of control"}, {"measurement": "T/C", "setting": "dose: 50.0 mg/kg/injection, schedule: Q01DX001 (ip), vehicle: carboxymethylcellulose (CMC)", "result": "216 % of control"}, {"measurement": "T/C", "setting": "dose: 50.0 mg/kg/injection, schedule: Q01DX009 (ip), vehicle: carboxymethylcellulose (CMC)", "result": "87 % of control"}]}
